Experimental data taken from US12577217B2, “15-PGDH inhibitor” (KYORIN Pharmaceutical Co., Ltd., priority 2019, dated 2026).
Counter-ions that a name gives are not always drawn.

Molecular target: T1, recombinant human 15-PGDH (Homo sapiens, UniProt P15428)
T1 construct: purchased R&D Systems
T1 sequence (P15428 1-266): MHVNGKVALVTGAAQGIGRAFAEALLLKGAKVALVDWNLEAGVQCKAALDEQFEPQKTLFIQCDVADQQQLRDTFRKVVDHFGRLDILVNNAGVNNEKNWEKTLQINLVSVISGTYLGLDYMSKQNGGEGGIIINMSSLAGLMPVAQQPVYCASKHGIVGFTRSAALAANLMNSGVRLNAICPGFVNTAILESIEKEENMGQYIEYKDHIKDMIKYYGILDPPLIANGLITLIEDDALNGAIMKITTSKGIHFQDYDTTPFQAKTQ
Experiment: 15-PGDH enzyme inhibition test
Assay type: biochemical
Settings: 4 nM recombinant human 15-PGDH, 30 μM PGE2, 1 mM NAD+, 60 minutes after starting the reaction; read-out: IC50 Value
Procedure, shortened: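 4 nM recombinant human enzyme pre-incubated with compound 12 min at room temperature in 50 mM Tris-HCl pH 8.0 with 0.01% Tween 20 and 0.01% bovine gamma globulin. Reaction started with 30 μM PGE2 and 1 mM NAD+, read after 60 min by fluorescence (ex 340/em 440 nm). IC50 from concentration-response curve.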

SMILES	IC50 [nM]
O=C(c1cnc2c(c1)OCCN2c1ccn2c(=O)n(-c3ccccc3)nc2c1)N1CCCCC1 [Example 21-1, 2-Phenyl-7-(7-(piperidine-1-carbonyl)-2,3-dihydro-4H-pyrido[3,2-b] [1,4]oxazin-4-yl)-[1,2,4]triazolo[4,3-a]pyridin-3 (2H)-one]	< 10
Cn1nc2cc(N3CC(F)(F)COc4cc(C(=O)N5CCCCC5)cnc43)ccn2c1=O [Example 22-1, 7-(3,3-Difluoro-8-(piperidine-1-carbonyl)-3,4-dihydropyrido[3,2-b][1,4]oxazepin-5(2H)-yl)-2-methyl-[1,2,4]triazolo[4,3-a]pyridin-3 (2H)-one]	10 to 100
Cc1cc(N2CCOc3cc(C(=O)N4CCCCC4)ccc32)n2ncnc2n1 [Example 24-1, (4-(5-Methyl-[1,2,4]triazolo[1,5-a]pyrimidin-7-yl)-3,4-dihydro-2H-benzo[b][1,4]oxazin-7-yl)(piperidin-1-yl)methanone]	> 100
Cc1nccc(N2CCOc3cc(C(=O)N4CCC(F)(F)CC4)ccc32)n1 [Example 24-3]	10 to 100
O=C(c1cnc2c(c1)OCCN2c1ccc2c(c1)CN(CO)C2=O)N1CCC(F)(F)CC1 [Example 25-1, 5-(7-(4,4-Difluoropiperidine-1-carbonyl)-2,3-dihydro-4H-pyrido[3,2-b]oxazin-4-yl)-2-(hydroxymethyl)isoindolin-1-one]	< 10
O=C(c1cnc2c(c1)CCCN2c1ccn2c(=O)n(C3CC3)nc2c1)N1CCCCC1 [Example 26-1, 2-Cyclopropyl-7-(6-(piperidine-1-carbonyl)-3,4-dihydro-1,8-naphthylidin-1(2H)-yl)-[1,2,4]triazolo[4,3-a]pyridin-3(2H)-one]	< 10
O=C(c1cnc2c(c1)OCCN2c1ccn2c(=O)n(C3CC3)nc2c1)N1CCCCC1 [Example 26-2]	< 10
O=C(c1cnc2c(c1)OCCN2c1ccn2c(=O)n(Cc3ccc(F)cc3)nc2c1)N1CCCCC1 [Example 27-1]	< 10
O=C(c1cnc2c(c1)OCCN2c1ccn2c(=O)n(Cc3ccnc(Cl)c3)nc2c1)N1CCCCC1 [Example 27-2]	< 10
O=C(c1cnc2c(c1)OCCN2c1ccn2c(=O)n(CC(F)(F)F)nc2c1)N1CCCCC1 [Example 27-3]	< 10
O=C(c1cnc2c(c1)OCCN2c1ccn2c(=O)n(Cc3ccc(F)cc3)nc2c1)N1CCC(F)(F)CC1 [Example 27-4]	< 10
O=C(c1cnc2c(c1)OCCN2c1ccn2c(=O)n(Cc3ccc(F)cc3F)nc2c1)N1CCC(F)(F)CC1 [Example 27-5]	< 10
O=C(c1cnc2c(c1)OCCN2c1ccn2c(=O)n(Cc3ccc(F)c(F)c3)nc2c1)N1CCC(F)(F)CC1 [Example 27-6]	< 10
O=C(c1cnc2c(c1)OCCN2c1ccn2c(=O)n(Cc3ccnc(Cl)c3)nc2c1)N1CCC(F)(F)CC1 [Example 27-7]	< 10
O=C(c1cnc2c(c1)OCCN2c1ccn2c(=O)n(CC(F)(F)F)nc2c1)N1CCC(F)(F)CC1 [Example 27-8]	< 10
Cn1nc2cc(N3CCNc4cc(C(=O)N5CCC(F)(F)CC5)cnc43)ccn2c1=O [Example 28-2]	< 10
CN1CCN(c2ccn3c(=O)n(C)nc3c2)c2ncc(C(=O)N3CCCCC3)cc21 [Example 29-1, 2-Methyl-7-(l-methyl-7-(piperidine-1-carbonyl)-2,3-dihydropyrido[2,3-b]pyrazin-4(1H)-yl)-[1,2,4]triazolo[4,3-a]pyridin-3(2H)-one]	< 10
COCCN1CCN(c2ccn3c(=O)n(C)nc3c2)c2ncc(C(=O)N3CCCCC3)cc21 [Example 29-2]	< 10

SMILES	IC50 [nM]
CC(=O)N1CCN(c2ccn3c(=O)n(C)nc3c2)c2ncc(C(=O)N3CCCCC3)cc21 [Example 29-3]	< 10
CN1CCN(c2ccn3c(=O)n(C)nc3c2)c2ncc(C(=O)N3CCC(F)(F)CC3)cc21 [Example 29-4]	< 10
CCN1CCN(c2ccn3c(=O)n(C)nc3c2)c2ncc(C(=O)N3CCC(F)(F)CC3)cc21 [Example 29-5]	< 10
Cn1nc2cc(N3CCN(c4ccccc4)c4cc(C(=O)N5CCC(F)(F)CC5)cnc43)ccn2c1=O [Example 30-1, 7-(7-(4,4-Difluoropiperidine-1-carbonyl)-1-phenyl-2,3-dihydropyrido[2,3-b]pyrazin-4(1H)-yl)-2-methyl-[1,2,4]triazolo[4,3-a]pyridin-3 (2H)-one]	10 to 100
Cn1nc2cc(N3CCN(c4ccc(C#N)cc4)c4cc(C(=O)N5CCC(F)(F)CC5)cnc43)ccn2c1=O [Example 30-2]	10 to 100
COC(=O)c1ccc(N2CCN(c3ccn4c(=O)n(C)nc4c3)c3ncc(C(=O)N4CCC(F)(F)CC4)cc32)cc1 [Example 30-3]	10 to 100
Cn1nc2cc(N3CCN(c4ncc(Cl)s4)c4cc(C(=O)N5CCC(F)(F)CC5)cnc43)ccn2c1=O [Example 30-4]	< 10
Cn1nc2cc(N3CCN(c4cccnc4)c4cc(C(=O)N5CCC(F)(F)CC5)cnc43)ccn2c1=O [Example 30-5]	> 100
CC(=O)NC(C)(C)c1ccc(N2CCOc3cc(C(=O)N4CCCCC4)cnc32)cc1 [Example 31-1]	> 100
CC(C)(NS(C)(=O)=O)c1ccc(N2CCOc3cc(C(=O)N4CCCCC4)cnc32)cc1 [Example 31-2]	> 100
CNC1CCCN(C(=O)c2cnc3c(c2)OCCN3c2ccn3c(=O)n(C)nc3c2)C1 (stereo not drawn) [Example 32-1, 2-Methyl-7-(7-(3-(methylamino)piperidine-1-carbonyl)-2,3-dihydro-4H-pyrido[3,2-b][1,4]oxazin-4-yl)-[1,2,4]triazolo[4,3-a]pyridin-3(2H)-one Trifluoroacetate]	> 100
CN(C)C1CCCN(C(=O)c2cnc3c(c2)OCCN3c2ccn3c(=O)n(C)nc3c2)C1 (stereo not drawn) [Example 33-1, 7-(7-(3-(Dimethylamino)piperidine-1-carbonyl)-2,3-dihydro-4H-pyrido[3,2-b] [1,4]oxazin-4-yl)-2-methyl-[1,2,4]triazolo[4,3-a]pyridin-3(2H)-one]	> 100
CC(=O)N(C)C1CCCN(C(=O)c2cnc3c(c2)OCCN3c2ccn3c(=O)n(C)nc3c2)C1 (stereo not drawn) [Example 34-1, N-Methyl-N-(1-(4-(2-methyl-3-oxo-2,3-dihydro-[1,2,4]triazolo[4,3-a]pyridin-7-yl)-3,4-dihydro-2H-pyrido[3,2-b][1,4]oxazin-7-carbonyl)piperidin-3-yl)acetamide]	> 100
Cn1nc2cc(N3CCOc4cc(C(=O)N5CCC[C@H]5C(=O)O)cnc43)ccn2c1=O [Example 35-1, (4-(2-Methyl-3-oxo-2,3-dihydro-[1,2,4]triazolo[4,3-a]pyridin-7-yl)-3,4-dihydro-2H-pyrido[3,2-b][1,4]oxazine-7-carbonyl)-L-proline]	> 100
Cn1nc2cc(N3CCOc4cc(C(=O)N5CCC[C@@H]5C(=O)O)cnc43)ccn2c1=O [Example 35-2]	> 100
Cn1nc2cc(N3CCOc4cc(C(=O)N5CCC[C@H]5C(N)=O)cnc43)ccn2c1=O [Example 36-1, (S)-1-(4-(2-Methyl-3-oxo-2,3-dihydro-[1,2,4]triazolo[4,3-a]pyridin-7-yl)-3,4-dihydro-2H-pyrido[3,2-b][1,4]oxazine-7-carbonyl)pyrrolidine-2-carboxamide]	> 100
Cn1nc2cc(N3CCOc4cc(C(=O)N5CCC[C@@H]5C(N)=O)cnc43)ccn2c1=O [Example 36-2]	> 100
Cn1nc2cc(N3CCOc4cc(C(=O)N5C=CCCC5)cnc43)ccn2c1=O [Example 37-1, 2-Methyl-7-(7-(1,2,3,4-tetrahydropyridine-1-carbonyl)-2,3-dihydro-4H-pyrido[3,2-b][1,4]oxazin-4-yl)-[1,2,4]triazolo[4,3-a]pyridin-3(2H)-one]	< 10
